Patent US20210290732A1, “GLP-1R and GCGR Agonists, Formulations, and Methods of Use” (Spitfire Pharma LLC, priority 2020, published 2021)
Where two headings read alike, the source gives them in different places.

Columns and labels:
[1] = target: T1, human GLP-1R (Homo sapiens, UniProt P43220); experiment: cAMP receptor activation assay, human GLP-1R cloned into CHO cells (DiscoverX LeadHunter / cAMP Hunter); format: cell-based; settings: for Selectivity Ratio GLP-1R vs GCGR: SR = GCGR EC50/GLP-1 EC50, 0.1% BSA
T1 construct: host or cells: CHO-K1
Method: (§1) Cellular assays were carried out using standard cellular assays (DiscoveRx, LeadHunter assays) using readout of cAMP stimulation or arrestin activation. Compounds were weighed precisely in an amount of approximately 1 mg and shipped to DiscoverX (Fremont, Calif.) for dilution and assay. […] Assays were carried out in the presence of 0.1% ovalbumin. […] Use of 0.1% ovalbumin can avoid this problem.
(§2) Assays were carried out in the presence of 0.1% ovalbumin. […] Use of 0.1% ovalbumin can avoid this problem.
(§3) Receptor activation assays were performed at DiscoverX laboratories (Fremont, Calif.) using human GLP-1R and GCGR cloned into Chinese Hamster Ovary (CHO) cells (LeadHunter Discovery Services; assay product 86-0007D cAMP Hunter™ using huGLP1R and huGCGR; whole cell cAMP accumulation assays; cell lines used were cAMP Hunter™ CHO-K1 GCGR Gs Cell Line, catalog 95-0042C2 and cAMP Hunter™ CHO-K1 GLP1 Gs Cell Line, catalog 95-0062C2; readout of accumulated cAMP was made using readout HitHunter cAMP XS+ assay). Cell lines are maintained at DiscoverX and were incubated with test agents for 30 m at 37° C. for accumulation of cAMP. […] Results described herein are from single assays performed on cells in duplicate and data were replotted in Prism 5 to provide pEC50 (SE) data.
(§4) In vitro data are presented as pEC50 (SE) determined in Prism 5 by nonlinear regression analysis of the raw fluorescence data normalized by corresponding response to internal standards (see Supporting Information for data plots).

[2] = target: GCGR (Homo sapiens, UniProt P47871); experiment: cAMP receptor activation assay, human GCGR cloned into CHO cells (DiscoverX LeadHunter / cAMP Hunter); format: cell-based; parameters: host or cells: CHO-K1
Method: as §1, §2, §3, §4

[3] = ratio of EC50 in 0.1% BSA and 0.1% ovalbumin
[4] = cAMP, CHO cells, 0.1% BSA containing buffers, read-out: pEC50 (SE) hu GLP-1 (converted)
[5] = cAMP, CHO cells, 0.1% BSA containing buffers, read-out: pEC50 (SE) huGCGR (converted)

GCGR, sequence (P47871 26-477): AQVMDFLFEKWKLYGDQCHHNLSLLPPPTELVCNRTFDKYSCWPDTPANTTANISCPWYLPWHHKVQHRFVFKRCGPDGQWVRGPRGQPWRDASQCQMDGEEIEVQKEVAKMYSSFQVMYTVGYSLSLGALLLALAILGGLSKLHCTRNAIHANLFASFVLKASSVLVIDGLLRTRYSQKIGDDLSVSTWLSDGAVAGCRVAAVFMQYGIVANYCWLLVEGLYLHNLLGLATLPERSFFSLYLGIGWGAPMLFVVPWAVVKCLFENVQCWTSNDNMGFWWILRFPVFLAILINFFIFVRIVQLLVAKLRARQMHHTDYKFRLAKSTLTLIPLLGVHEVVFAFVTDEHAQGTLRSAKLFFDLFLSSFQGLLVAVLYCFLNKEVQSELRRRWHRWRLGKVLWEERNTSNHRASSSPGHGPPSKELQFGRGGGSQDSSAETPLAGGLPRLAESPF
T1 sequence (P43220 24-463): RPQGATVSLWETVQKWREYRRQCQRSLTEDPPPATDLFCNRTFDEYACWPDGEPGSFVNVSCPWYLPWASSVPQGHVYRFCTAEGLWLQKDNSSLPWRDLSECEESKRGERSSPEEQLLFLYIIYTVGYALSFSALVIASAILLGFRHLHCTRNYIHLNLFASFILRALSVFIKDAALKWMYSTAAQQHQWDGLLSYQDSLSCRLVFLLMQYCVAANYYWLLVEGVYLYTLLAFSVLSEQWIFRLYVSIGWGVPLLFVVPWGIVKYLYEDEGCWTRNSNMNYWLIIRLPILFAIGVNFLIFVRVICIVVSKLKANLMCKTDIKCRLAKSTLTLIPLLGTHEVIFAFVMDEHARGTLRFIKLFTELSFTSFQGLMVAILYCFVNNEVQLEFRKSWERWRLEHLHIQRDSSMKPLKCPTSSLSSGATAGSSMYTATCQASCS

In the case of `CCCCCCCCCCCCCCCCO[C@@H]1O[C@H](CO[C@H]2O[C@H](C(=O)NCCCC[C@@H]3NC(=O)[C@@H](NC(=O)[C@H](CC(=O)O)NC(=O)[C@H](CC(C)C)NC(=O)[C@H](Cc4ccc(O)cc4)NC(=O)[C@H](CCCCN)NC(=O)[C@H](CO)NC(=O)[C@H](Cc4ccc(O)cc4)NC(=O)[C@H](CC(=O)O)NC(=O)[C@H](CO)NC(=O)[C@@H](NC(=O)[C@H](Cc4ccccc4)NC(=O)[C@@H](NC(=O)CNC(=O)[C@H](CCC(N)=O)NC(=O)C(C)(C)NC(=O)[C@@H](N)Cc4c[nH]cn4)[C@@H](C)O)[C@@H](C)O)CCC(=O)NCCCC[C@@H](C(=O)N[C@@H](CCC(=O)O)C(=O)N[C@@H](Cc4ccccc4)C(=O)N[C@H](C(=O)N[C@@H](CCC(N)=O)C(=O)N[C@@H](Cc4c[nH]c5ccccc45)C(=O)N[C@@H](CC(C)C)C(=O)N[C@@H](CC(C)C)C(=O)N[C@@H](CCC(N)=O)C(=O)N[C@H](C(N)=O)[C@@H](C)O)[C@@H](C)CC)NC(=O)[C@H](C)NC(=O)[C@H](C)NC3=O)[C@H](O)[C@H](O)[C@H]2O)[C@@H](O)[C@H](O)[C@H]1O` [EU-A1588], the “Ovalbumin vs. BSA - fold improv/worsen GLP-1 R” value [1, 3] is reported as 5 fold and the “Ovalbumin vs. BSA - fold improv/worsen GCG R” value [2, 3] is reported as 6 fold.

Molecule `CC[C@H](C)[C@H](NC(=O)[C@H](Cc1ccccc1)NC(=O)[C@H](CCC(=O)O)NC(=O)[C@@H]1CCCCNC(=O)CC[C@H](NC(=O)[C@H](CC(=O)O)NC(=O)[C@H](CC(C)C)NC(=O)[C@H](Cc2ccc(O)cc2)NC(=O)[C@H](CCCCN)NC(=O)[C@H](CO)NC(=O)[C@H](Cc2ccc(O)cc2)NC(=O)[C@H](CC(=O)O)NC(=O)[C@H](CO)NC(=O)[C@@H](NC(=O)[C@H](Cc2ccccc2)NC(=O)[C@@H](NC(=O)CNC(=O)[C@H](CCC(N)=O)NC(=O)C(C)(C)NC(=O)[C@@H](N)Cc2c[nH]cn2)[C@@H](C)O)[C@@H](C)O)C(=O)N[C@@H](CCC(N)=O)C(=O)N[C@@H](C)C(=O)N[C@@H](C)C(=O)N1)C(=O)N[C@@H](CCCCNC(=O)[C@H]1O[C@@H](OCCCCCCCCCCCCCCCC(=O)O)[C@H](O)[C@@H](O)[C@@H]1O)C(=O)N[C@@H](Cc1c[nH]c2ccccc12)C(=O)N[C@@H](CC(C)C)C(=O)N[C@@H](CC(C)C)C(=O)N[C@@H](CCC(N)=O)C(=O)N[C@H](C(N)=O)[C@@H](C)O` [EU-A1871] has an EC50 ([1]; EC50 cAMP GLP-1 R (pM) 0.1% BSA, Table 5, 0.1% BSA) of 162 pM and an EC50 ([2]; EC50 cAMP glucagon R (pM) 0.1% BSA, Table 5, 0.1% BSA) of 461 pM.

For `CC[C@H](C)[C@H](NC(=O)[C@H](Cc1ccccc1)NC(=O)[C@H](CCC(=O)O)NC(=O)[C@@H]1CCCCNC(=O)CC[C@H](NC(=O)[C@H](CC(=O)O)NC(=O)[C@H](CC(C)C)NC(=O)[C@H](Cc2ccc(O)cc2)NC(=O)[C@H](CCCCN)NC(=O)[C@H](CO)NC(=O)[C@H](Cc2ccc(O)cc2)NC(=O)[C@H](CC(=O)O)NC(=O)[C@H](CO)NC(=O)[C@@H](NC(=O)[C@H](Cc2ccccc2)NC(=O)[C@@H](NC(=O)CNC(=O)[C@H](CCC(N)=O)NC(=O)C(C)(C)NC(=O)[C@@H](N)Cc2c[nH]cn2)[C@@H](C)O)[C@@H](C)O)C(=O)N[C@@H](CCC(N)=O)C(=O)N[C@@H](C)C(=O)N[C@@H](C)C(=O)N1)C(=O)N[C@@H](CCCCNC(=O)[C@H]1O[C@@H](OCCCCCCCCCCCCCCCCCC(=O)O)[C@H](O)[C@@H](O)[C@@H]1O)C(=O)N[C@@H](Cc1c[nH]c2ccccc12)C(=O)N[C@@H](CC(C)C)C(=O)N[C@@H](CC(C)C)C(=O)N[C@@H](CCC(N)=O)C(=O)N[C@H](C(N)=O)[C@@H](C)O` [EU-A1872], the EC50 ([1]; read-out: EC50 cAMP GLP-1 R (pM) 0.1% BSA, Table 5, 0.1% BSA) was 1270 pM, the EC50 ([1]; read-out: EC50 cAMP GLP-1 R (pM) 0.1% BSA, Table 6, 0.1% BSA) was 1270 pM and the EC50 ([2]; read-out: EC50 cAMP glucagon R (pM) 0.1% Ovalb, Table 5, 0.1% ovalbumin) was 86 pM.

With `CCCCCCCCO[C@@H]1O[C@H](C(=O)NCCCC[C@H](NC(=O)[C@@H](NC(=O)[C@H](Cc2ccccc2)NC(=O)[C@H](CCC(=O)O)NC(=O)[C@@H]2CCCCNC(=O)CC[C@H](NC(=O)[C@H](CC(=O)O)NC(=O)[C@H](CC(C)C)NC(=O)[C@H](Cc3ccc(O)cc3)NC(=O)[C@H](CCCCN)NC(=O)[C@H](CO)NC(=O)[C@H](Cc3ccc(O)cc3)NC(=O)[C@H](CC(=O)O)NC(=O)[C@H](CO)NC(=O)[C@@H](NC(=O)[C@H](Cc3ccccc3)NC(=O)[C@@H](NC(=O)CNC(=O)[C@H](CCC(N)=O)NC(=O)C(C)(C)NC(=O)[C@@H](N)Cc3c[nH]cn3)[C@@H](C)O)[C@@H](C)O)C(=O)N[C@@H](CCC(N)=O)C(=O)N[C@@H](C)C(=O)N[C@@H](C)C(=O)N2)[C@@H](C)CC)C(=O)N[C@@H](Cc2c[nH]c3ccccc23)C(=O)N[C@@H](CC(C)C)C(=O)N[C@@H](CC(C)C)C(=O)N[C@@H](CCC(N)=O)C(=O)N[C@H](C(N)=O)[C@@H](C)O)[C@@H](O)[C@H](O)[C@H]1O` [analogue 1] the “Selectivity Ratio GLP-1R vs GCGR” value [1] was 3, the EC50 ([1]; cAMP, CHO cells, 0.1% BSA containing buffers, read-out: EC50 hGLP-1R) was 8 pM and the EC50 [1, 4] was 8.51 pM. It also gave an EC50 [2, 5] of 20 pM.

`CCCCCCCCCCCCO[C@@H]1O[C@H](C(=O)NCCCC[C@H](NC(=O)[C@@H](NC(=O)[C@H](Cc2ccccc2)NC(=O)[C@H](CCC(=O)O)NC(=O)[C@@H]2CCCCNC(=O)CC[C@H](NC(=O)[C@H](CC(=O)O)NC(=O)[C@H](CC(C)C)NC(=O)[C@H](Cc3ccc(O)cc3)NC(=O)[C@H](CCCCN)NC(=O)[C@H](CO)NC(=O)[C@H](Cc3ccc(O)cc3)NC(=O)[C@H](CC(=O)O)NC(=O)[C@H](CO)NC(=O)[C@@H](NC(=O)[C@H](Cc3ccccc3)NC(=O)[C@@H](NC(=O)CNC(=O)[C@H](CCC(N)=O)NC(=O)C(C)(C)NC(=O)[C@@H](N)Cc3c[nH]cn3)[C@@H](C)O)[C@@H](C)O)C(=O)N[C@@H](CCC(N)=O)C(=O)N[C@@H](C)C(=O)N[C@@H](C)C(=O)N2)[C@@H](C)CC)C(=O)N[C@@H](Cc2c[nH]c3ccccc23)C(=O)N[C@@H](CC(C)C)C(=O)N[C@@H](CC(C)C)C(=O)N[C@@H](CCC(N)=O)C(=O)N[C@H](C(N)=O)[C@@H](C)O)[C@@H](O)[C@H](O)[C@H]1O` [analogue 3] showed an EC50 [2, 5] of 28.8 pM.

`CCCCCCCCCCCCCCCCCCO[C@@H]1O[C@H](C(=O)NCCCC[C@H](NC(=O)[C@@H](NC(=O)[C@H](Cc2ccccc2)NC(=O)[C@H](CCC(=O)O)NC(=O)[C@@H]2CCCCNC(=O)CC[C@H](NC(=O)[C@H](CC(=O)O)NC(=O)[C@H](CC(C)C)NC(=O)[C@H](Cc3ccc(O)cc3)NC(=O)[C@H](CCCCN)NC(=O)[C@H](CO)NC(=O)[C@H](Cc3ccc(O)cc3)NC(=O)[C@H](CC(=O)O)NC(=O)[C@H](CO)NC(=O)[C@@H](NC(=O)[C@H](Cc3ccccc3)NC(=O)[C@@H](NC(=O)CNC(=O)[C@H](CCC(N)=O)NC(=O)C(C)(C)NC(=O)[C@@H](N)Cc3c[nH]cn3)[C@@H](C)O)[C@@H](C)O)C(=O)N[C@@H](CCC(N)=O)C(=O)N[C@@H](C)C(=O)N[C@@H](C)C(=O)N2)[C@@H](C)CC)C(=O)N[C@@H](Cc2c[nH]c3ccccc23)C(=O)N[C@@H](CC(C)C)C(=O)N[C@@H](CC(C)C)C(=O)N[C@@H](CCC(N)=O)C(=O)N[C@H](C(N)=O)[C@@H](C)O)[C@@H](O)[C@H](O)[C@H]1O` [analogue 6] was tested, and the “Selectivity Ratio GLP-1R vs GCGR” value [1] was 17, the “Selectivity Ratio (SR=GCGR EC50/GLP-1 EC50)” value [2] was 17 and the EC50 ([2]; text on Table 17, read-out: EC50 values for GCGR) was 884 pM.

`CCCCCCCCCCCCO[C@@H]1O[C@H](C(=O)O)[C@@H](O[C@H]2O[C@H](C(=O)NCCCC[C@H](NC(=O)[C@@H](NC(=O)[C@H](Cc3ccccc3)NC(=O)[C@H](CCC(=O)O)NC(=O)[C@@H]3CCCCNC(=O)CC[C@H](NC(=O)[C@H](CC(=O)O)NC(=O)[C@H](CC(C)C)NC(=O)[C@H](Cc4ccc(O)cc4)NC(=O)[C@H](CCCCN)NC(=O)[C@H](CO)NC(=O)[C@H](Cc4ccc(O)cc4)NC(=O)[C@H](CC(=O)O)NC(=O)[C@H](CO)NC(=O)[C@@H](NC(=O)[C@H](Cc4ccccc4)NC(=O)[C@@H](NC(=O)CNC(=O)[C@H](CCC(N)=O)NC(=O)C(C)(C)NC(=O)[C@@H](N)Cc4c[nH]cn4)[C@@H](C)O)[C@@H](C)O)C(=O)N[C@@H](CCC(N)=O)C(=O)N[C@@H](C)C(=O)N[C@@H](C)C(=O)N3)[C@@H](C)CC)C(=O)N[C@@H](Cc3c[nH]c4ccccc34)C(=O)N[C@@H](CC(C)C)C(=O)N[C@@H](CC(C)C)C(=O)N[C@@H](CCC(N)=O)C(=O)N[C@H](C(N)=O)[C@@H](C)O)[C@@H](O)[C@H](O)[C@H]2O)[C@H](O)[C@H]1O` [analogue 7] gave an EC50 [1] of 50.1 pM and an EC50 [2, 5] of 14.8 pM.

For `CCCCCCCCCCCCCCO[C@@H]1O[C@H](C(=O)NCCCC[C@H](N)C(=O)NCCCC[C@H](NC(=O)[C@@H](NC(=O)[C@H](Cc2ccccc2)NC(=O)[C@H](CCC(=O)O)NC(=O)[C@@H]2CCCCNC(=O)CC[C@H](NC(=O)[C@H](CC(=O)O)NC(=O)[C@H](CC(C)C)NC(=O)[C@H](Cc3ccc(O)cc3)NC(=O)[C@H](CCCCN)NC(=O)[C@H](CO)NC(=O)[C@H](Cc3ccc(O)cc3)NC(=O)[C@H](CC(=O)O)NC(=O)[C@H](CO)NC(=O)[C@@H](NC(=O)[C@H](Cc3ccccc3)NC(=O)[C@@H](NC(=O)CNC(=O)[C@H](CCC(N)=O)NC(=O)C(C)(C)NC(=O)[C@@H](N)Cc3c[nH]cn3)[C@@H](C)O)[C@@H](C)O)C(=O)N[C@@H](CCC(N)=O)C(=O)N[C@@H](C)C(=O)N[C@@H](C)C(=O)N2)[C@@H](C)CC)C(=O)N[C@@H](Cc2c[nH]c3ccccc23)C(=O)N[C@@H](CC(C)C)C(=O)N[C@@H](CC(C)C)C(=O)N[C@@H](CCC(N)=O)C(=O)N[C@H](C(N)=O)[C@@H](C)O)[C@@H](O)[C@H](O)[C@H]1O` [analogue 13], the “Selectivity Ratio GLP-1R vs GCGR” value [1] was 5, the EC50 [1, 4] was 37.2 pM and the “Selectivity Ratio (SR=GCGR EC50/GLP-1 EC50)” value [2] was 5.

In the case of exendin-4 [reference compound], the “Fold Improvement GLP-1R” value [1] is reported as 1 and the “fold improvement on replacing BSA (0.1%) with OVA (0.1%)” value [1] is reported as “negligible”.
